# Results: publication PMC7549214 (Malaria Journal, 2020)
# Tests used:
# Cam3.I (MRA1240) = assay: microbe, parasite or virus in culture; type: cell-based; conditions: Plasmodium falciparum
# CYP2C19 = CYP2C19 (Homo sapiens, UniProt P33261); assay: CYP inhibition; type: in vitro ADME; conditions: read-out: CYP inhibition IC50, CYP 2C19
# [1] = Repeated dose 14-day toxicity study;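 further: rats dosed once daily for 14 days, test item in Tween 80 plus methylcellulose vehicle at 10 mL/kg bw, compared against vehicle-treated G1 controls by one-way ANOVA with Dunnett test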
# Procedure: The animal grouping was done by the method of body weight stratification and randomization. The animals procured for the study were weighed and grouped into body weight ranges. […] Tween 80 (0.1% (v/v)) + methylcellulose (0.5% (w/v)) was used as a vehicle and the test item was dosed at a dose volume of 10 mL/kg bw. The animals were dosed once a day for a period of 14 consecutive days. The test item was administered at concentrations as mentioned in the Table for G2, G3, G4, G5 groups whereas vehicle was administered to G1 group (vehicle control) at the volume of 10 mL/kg body weight. […] On days 2 to 13, animals were dosed in the fed state. During the study, observations were made for clinical signs and mortality, body weights, gross necropsy and organ weights. The data were subjected to statistical analyses using GraphPad Prism version 5.00, GraphPad Software. One way ANOVA with Dunnets post-test were done for different treatment groups compared with the control group data.
# Chain of CYP2C19 (P33261 whole entry, species assumed): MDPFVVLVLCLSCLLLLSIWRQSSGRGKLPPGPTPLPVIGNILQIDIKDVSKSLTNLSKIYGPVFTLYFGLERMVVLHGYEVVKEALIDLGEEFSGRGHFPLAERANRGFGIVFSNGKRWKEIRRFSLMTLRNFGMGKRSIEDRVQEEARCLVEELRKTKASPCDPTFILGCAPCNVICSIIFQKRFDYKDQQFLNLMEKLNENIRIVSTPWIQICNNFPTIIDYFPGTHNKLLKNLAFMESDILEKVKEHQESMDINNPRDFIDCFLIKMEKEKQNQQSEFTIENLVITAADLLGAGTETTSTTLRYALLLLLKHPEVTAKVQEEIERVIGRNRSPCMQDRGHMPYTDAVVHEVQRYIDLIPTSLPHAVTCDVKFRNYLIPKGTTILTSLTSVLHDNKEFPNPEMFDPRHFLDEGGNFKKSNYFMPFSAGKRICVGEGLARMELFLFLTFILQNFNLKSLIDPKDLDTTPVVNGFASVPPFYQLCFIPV
smiles,measurement,setting,value
O=C(NO)c1ccc(Cn2cc(-c3ccc(CN4CCCC4)cc3)nn2)cc1 [FNDR-20123],IC50,Cam3.I (MRA1240),22.1 nM
same,IC50,CYP2C19,> 60000 nM
same,Toxic effects on body weights and organ weights,"[1]; 14-day oral, 50, 100 and 150 mg/kg body weight, male and female rats",no adverse toxic effects on body weights and organ weights
same,Adverse clinical signs or mortality,"[1]; 14-day repeat dose oral gavage, both sexes",did not reveal any adverse clinical signs or mortality
same,Abnormality in body weight or gross organ pathology,"[1]; 14-day, 100 mg/kg daily dose",did not show any abnormality in body weight or gross organ pathology
same,Fasting body weight,"[1]; female, G2 50 mg/kg",149.51 g
same,Body weight,"[1]; female, G2 50 mg/kg bw, day 1",146.45 g
same,Body weight,"[1]; female, G2 50 mg/kg bw, day 7",150.70 g
same,Body weight,"[1]; female, G2 50 mg/kg bw, day 14",161.49 g
same,Body weight,"[1]; female, G3 100 mg/kg bw, day 1",146.70 g
same,Body weight,"[1]; female, G3 100 mg/kg bw, day 7",145.63 g
same,Body weight,"[1]; female, G3 100 mg/kg bw, day 14",158.43 g
same,Fasting body weight,"[1]; female, G4 150 mg/kg",134.25 g
same,Body weight,"[1]; female, G4 150 mg/kg bw, day 7",139.82 g
same,Body weight,"[1]; female, G4 150 mg/kg bw, day 14",142.91 g
same,Fasting body weight,"[1]; male, G2 50 mg/kg",189.75 g
same,Body weight,"[1]; male, G2 50 mg/kg bw, day 1",166.04 g
same,Body weight,"[1]; male, G2 50 mg/kg bw, day 7",190.40 g
same,Body weight,"[1]; male, G2 50 mg/kg bw, day 14",209.30 g
same,Fasting body weight,"[1]; male, G3 100 mg/kg",163.82 g
same,Body weight,"[1]; male, G3 100 mg/kg bw, day 1",166.39 g
same,Body weight,"[1]; male, G3 100 mg/kg bw, day 7",173.72 g
same,Body weight,"[1]; male, G3 100 mg/kg bw, day 14",177.16 g
same,Fasting body weight,"[1]; male, G4 150 mg/kg",174.95 g
same,Body weight,"[1]; male, G4 150 mg/kg bw, day 1",170.86 g
same,Body weight,"[1]; male, G4 150 mg/kg bw, day 7",180.10 g
same,Body weight,"[1]; male, G4 150 mg/kg bw, day 14",188.27 g
